Laboratory results taken from patent US20180042874A1, “METHOD FOR TREATING OSTEOPOROSIS” (China Medical University, priority 2016, published 2018).

Legend:
ERK = experiment: Western blot of MAPK pathway, phosphorylated ERK; format: cell-based, mouse; settings: 10 μg/ml co-treated with 100 ng/ml RANKL, 0-60 minutes
Procedure: (§1) The effect of the compound of formula I on the protein expression of osteoclast MAPKs pathways induced by receptor activator of nuclear factor κB ligand was studied, experiments were performed by using the Western blot method; RAW 264.7 cells were rinsed in ice-cold PBS, cell lysis buffer was added, the components of the buffer solution included: 10 mM 4-(2-hydroxyethyl)-1-piperazineethanesulfonic acid (HEPES), 1.5 mM MgCl2, 0.5 mM dithiothreitol (DTT), 0.5 μg/ml leupeptin and 6.4% Nonidet P-40, reacted on ice for 15 minutes. The cells were scraped off with a spatula, collected into a 1.5 ml centrifuge tube, the cells were thoroughly broken by using a shaker; centrifuged at 12,000 rpm, 4° C. for 10 minutes; supernatant was added into a new 1.5 ml centrifuge tube; boiled with IX sodiumdodecyl sulfate (SDS) sample buffer, followed by electrophoresis using 10 to 12% SDS-PAGE. […] The transfer membrane was rinsed again and the membrane loaded with chemical luminescence reagent ECL was allowed to react with a photosensitive sheet in a darkroom for a suitable period of time, the photosensitive sheet then reacted with the developer. After the photosensitive sheet was exposed to light a band-shaped antibody-binding proteins was observed, quantified by the density of the bands. […]

hepatitis B virus (HBV) = settings: human hepatocellular carcinoma cells; cited from earlier work
p38 = experiment: Western blot of MAPK pathway, phosphorylated p38; format: cell-based, mouse; settings: 10 μg/ml co-treated with 100 ng/ml RANKL, 0-60 minutes
Procedure: as §1

ovariectomized rats = experiment: Bone density in ovariectomized osteoporosis rat model; format: in vivo, Sprague-Dawley (SD) female rats
Procedure: Inducing osteoporosis animal models and experimental methods: • 1. 6-month old Sprague-Dawley (SD) female rats were purchased; • 2. These rats were divided into 7 groups, of which Group 1 was given pseudo-surgery, Group 2-7 underwent bilateral ovariectomies; • 3. On the 6th day after surgery, 1 mL/kg of vehicle alone was given orally to Group 1, Group 2 daily, Zoledronic Acid and Prolia were administered weekly by injections to Group 3, Group 4, respectively; 1, 3, 10 mg/kg of the compound of formula I was given orally every 3 days to Groups 5-7, respectively; • 4. Body weight and bone density were measured weekly, blood was drawn until the 118th day; • 5. Rats were then sacrificed to obtain kidneys, livers and rat tibia; • 6. Data were consolidated and processed.

NFATc2 = experiment: Western blot of MAPK downstream protein NFATc2; format: cell-based, mouse; settings: 10 μg/ml co-treated with 100 ng/ml RANKL, 48 hours
Procedure: as §1

NF-κB p65 = experiment: Western blot of NF-κB p65; format: cell-based, mouse; settings: 10 μg/ml co-treated with 100 ng/ml RANKL, 48 hours
Procedure: as §1

CNC(=O)N[C@]1(C)CCC[C@@]2(C)C3CC[C@@]4(C)C[C@]3(CCC21)CC4=O (single isomer, unassigned; ent-16) [compound of formula I, ent-16-oxobeyeran-19-N-methylureido]
expression of phosphorylated ERK (ERK): decreased
secretion of hepatitis B virus antigen (HBeAg) (hepatitis B virus (HBV)): effectively suppress
secretion of hepatitis B virus surface antigen (HBsAg) (hepatitis B virus (HBV)): effectively suppress
expression of phosphorylated p38 (p38): decreased
effect on reduced tibial bone density caused by ovarian removal (ovariectomized rats; ovariectomized rats, 1, 3, 10 mg/kg PO once every 3 days, 19 weeks after ovarian removal): improve the reduced tibial bone density
increase of tibial bone density (ovariectomized rats; ovariectomized rats, PO once every 3 days, as compared to the experimental group): 10%
NFATc2 protein expression (NFATc2): significantly reduced
NF-κB p65 protein expression (NF-κB p65): protein expression was reduced
